Source: US9040545B2, “Heterocyclyl pyrazolopyrimidine analogues as selective JAK inhibitors” (Cellzome Limited, priority 2010, dated 2015)

What was measured:
JAK2 = biological target: T1, JAK2 (Homo sapiens, UniProt O60674); experiment: Kinobeads assay, JAK2; assay type: binding; conditions: mixed Molt4/Ramos lysate, read-out: Inhibition values (IC50) JAK2
T1 construct: endogenous in cells; host or cells: mixed Molt4/Ramos lysate (1:2)
Method in brief: (§1)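 IC50 values come from dose-response curves of JAK2/JAK3 captured on immobilized aminopyrido-pyrimidine beads, quantified by antibody dot blot with infrared read-out. Compounds (1:3 series, 9 steps, from 5 mM DMSO stock) competed for 3 h in the cold with mixed Molt4/Ramos lysate (1:2, 10 mg/mL protein).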

JAK3 = biological target: T2, JAK3 (Homo sapiens, UniProt P52333); experiment: Kinobeads assay, JAK3; assay type: binding; conditions: mixed Molt4/Ramos lysate, read-out: Inhibition values (IC50) JAK3
T2 construct: endogenous in cells; host or cells: mixed Molt4/Ramos lysate (1:2)
T2 sequence (P52333 1-1124): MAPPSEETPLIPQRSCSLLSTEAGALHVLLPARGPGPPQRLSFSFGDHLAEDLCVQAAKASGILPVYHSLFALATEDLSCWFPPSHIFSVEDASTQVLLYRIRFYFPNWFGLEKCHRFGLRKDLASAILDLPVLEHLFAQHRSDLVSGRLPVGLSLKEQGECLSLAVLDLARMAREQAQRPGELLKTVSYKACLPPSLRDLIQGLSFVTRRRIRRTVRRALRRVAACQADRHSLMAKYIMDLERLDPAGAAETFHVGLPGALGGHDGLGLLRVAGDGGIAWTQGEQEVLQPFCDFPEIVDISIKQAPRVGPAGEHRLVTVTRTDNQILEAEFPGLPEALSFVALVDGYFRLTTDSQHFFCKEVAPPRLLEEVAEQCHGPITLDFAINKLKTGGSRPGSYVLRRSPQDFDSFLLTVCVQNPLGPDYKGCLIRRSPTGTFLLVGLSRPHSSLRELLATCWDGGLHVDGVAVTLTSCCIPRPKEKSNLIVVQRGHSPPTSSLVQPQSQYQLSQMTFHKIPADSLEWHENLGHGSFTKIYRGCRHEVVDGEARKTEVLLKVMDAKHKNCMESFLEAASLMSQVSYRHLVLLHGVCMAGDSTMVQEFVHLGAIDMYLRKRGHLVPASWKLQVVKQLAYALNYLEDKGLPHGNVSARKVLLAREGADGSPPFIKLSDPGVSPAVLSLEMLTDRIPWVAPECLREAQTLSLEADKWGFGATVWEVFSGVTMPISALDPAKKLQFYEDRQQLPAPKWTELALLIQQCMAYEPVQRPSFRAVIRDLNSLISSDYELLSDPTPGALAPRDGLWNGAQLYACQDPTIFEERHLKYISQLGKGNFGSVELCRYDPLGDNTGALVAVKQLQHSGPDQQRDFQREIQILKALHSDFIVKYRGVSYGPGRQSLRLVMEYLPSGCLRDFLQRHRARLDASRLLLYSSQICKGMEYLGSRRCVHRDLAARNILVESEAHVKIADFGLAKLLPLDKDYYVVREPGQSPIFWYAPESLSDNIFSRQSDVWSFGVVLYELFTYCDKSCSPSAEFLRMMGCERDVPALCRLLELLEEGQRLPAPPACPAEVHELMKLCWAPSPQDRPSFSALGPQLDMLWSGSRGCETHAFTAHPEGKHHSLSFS
Method in brief: as §1

T1 sequence (O60674 whole entry): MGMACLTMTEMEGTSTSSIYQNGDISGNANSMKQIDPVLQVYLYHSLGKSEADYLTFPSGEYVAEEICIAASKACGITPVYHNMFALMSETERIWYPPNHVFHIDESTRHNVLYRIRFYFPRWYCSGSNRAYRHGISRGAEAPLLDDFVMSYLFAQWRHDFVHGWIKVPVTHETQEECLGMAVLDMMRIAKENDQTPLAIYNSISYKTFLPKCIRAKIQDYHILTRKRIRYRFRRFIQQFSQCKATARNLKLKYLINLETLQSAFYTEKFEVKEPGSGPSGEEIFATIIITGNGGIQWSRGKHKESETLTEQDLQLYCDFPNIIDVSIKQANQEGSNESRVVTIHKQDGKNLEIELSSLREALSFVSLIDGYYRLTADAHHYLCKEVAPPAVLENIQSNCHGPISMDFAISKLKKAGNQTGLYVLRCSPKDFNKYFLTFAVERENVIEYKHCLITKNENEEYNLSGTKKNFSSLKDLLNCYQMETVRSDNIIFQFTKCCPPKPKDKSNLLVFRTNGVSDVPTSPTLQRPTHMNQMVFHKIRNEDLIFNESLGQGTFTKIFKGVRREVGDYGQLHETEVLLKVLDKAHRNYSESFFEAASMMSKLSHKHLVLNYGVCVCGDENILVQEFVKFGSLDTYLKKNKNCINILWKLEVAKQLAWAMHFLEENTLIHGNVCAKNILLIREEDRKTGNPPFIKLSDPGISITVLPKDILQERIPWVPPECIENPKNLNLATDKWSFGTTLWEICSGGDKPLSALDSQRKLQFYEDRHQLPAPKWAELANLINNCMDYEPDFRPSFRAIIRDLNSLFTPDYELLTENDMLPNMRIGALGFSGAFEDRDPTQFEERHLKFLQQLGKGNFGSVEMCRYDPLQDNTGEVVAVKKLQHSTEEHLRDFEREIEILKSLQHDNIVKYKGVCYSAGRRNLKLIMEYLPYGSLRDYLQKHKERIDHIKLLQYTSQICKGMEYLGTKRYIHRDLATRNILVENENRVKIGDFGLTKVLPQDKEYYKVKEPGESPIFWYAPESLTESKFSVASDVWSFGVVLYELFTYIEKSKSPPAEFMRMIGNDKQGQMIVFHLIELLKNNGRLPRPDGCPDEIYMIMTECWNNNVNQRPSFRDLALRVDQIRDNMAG

Row | IC50 (JAK2) [µM] | IC50 (JAK3) [nM] | SMILES
1 | 1 to 10 | < 100 | CN(C)CCCn1cc(Nc2ncc3cnn(Cc4c(F)c(F)cc(N5CCOCC5)c4F)c3n2)cn1 [Example 42, N-(1-(3-(Dimethylamino)propyl)-1H-pyrazol-4-yl)-1-(2,3,6-trifluoro-5-morpholinobenzyl)-1H-pyrazolo[3,4-d]pyrimidin-6-amine]
2 | 1 to 10 | < 100 | CN(C)CCCn1cc(Nc2ncc3cnn(Cc4cccc(N5CCOCC5)c4F)c3n2)cn1 [Example 43, N-(1-(3-(Dimethylamino)propyl)-1H-pyrazol-4-yl)-1-(2-fluoro-3-morpholinobenzyl)-1H-pyrazolo[3,4-d]pyrimidin-6-amine]
3 | ≥ 10 | < 100 | OCCn1cc(Nc2ncc3cnn(Cc4cc(N5CCOCC5)ccc4F)c3n2)cn1 [Example 44, 2-(4-((1-(2-Fluoro-5-morpholinobenzyl)-1H-pyrazolo[3,4-d]pyrimidin-6-yl)amino)-1H-pyrazol-1-yl)ethanol]
4 | 1 to 10 | < 100 | OCCn1cc(Nc2ncc3cnn(Cc4c(F)c(F)cc(N5CCOCC5)c4F)c3n2)cn1 [Example 45, 2-(4-((1-(2,3,6-Trifluoro-5-morpholinobenzyl)-1H-pyrazolo[3,4-d]pyrimidin-6-yl)amino)-1H-pyrazol-1-yl)ethanol]
5 | 1 to 10 | < 100 | O=C1COCCN1c1cccc(Cn2ncc3cnc(Nc4cnn(CCO)c4)nc32)c1F [Example 46, 4-(2-Fluoro-3-((6-((1-(2-hydroxyethyl)-1H-pyrazol-4-yl)amino)-1H-pyrazolo[3,4-d]pyrimidin-1-yl)methyl)phenyl)morpholin-3-one]
6 | 1 to 10 | < 100 | OCCn1cc(Nc2ncc3cnn(Cc4cccc(N5CCNCC5)c4)c3n2)cn1 [Example 47, 2-(4-((1-(3-(piperazin-1-yl)benzyl)-1H-pyrazolo[3,4-d]pyrimidin-6-yl)amino)-1H-pyrazol-1-yl)ethanol]
7 | 1 to 10 | < 100 | c1cc(Cn2ncc3cnc(Nc4cnn(CC5CCCNC5)c4)nc32)cc(N2CCOCC2)c1 (centres unmarked) [Example 48, 1-(3-Morpholinobenzyl)-N-(1-(piperidin-3-ylmethyl)-1H-pyrazol-4-yl)-1H-pyrazolo[3,4-d]pyrimidin-6-amine]
8 | 1 to 10 | < 100 | Cn1cc(Nc2ncc3cnn(Cc4cc(F)cc(N5CCOCC5)c4)c3n2)cn1 [Example 49, 1-(3-Fluoro-5-morpholinobenzyl)-N-(1-methyl-1H-pyrazol-4-yl)-1H-pyrazolo[3,4-d]pyrimidin-6-amine]
9 | 1 to 10 | < 100 | CN(C)CCCn1cc(Nc2ncc3cnn(Cc4cccc(N5CCOCC5=O)c4F)c3n2)cn1 [Example 50, 4-(3-((6-((1-(3-(Dimethylamino)propyl)-1H-pyrazol-4-yl)amino)-1H-pyrazolo[3,4-d]pyrimidin-1-yl)methyl)-2-fluorophenyl)morpholin-3-one]
10 | 1 to 10 | < 100 | OCCn1cc(Nc2ncc3cnn(Cc4cc(F)cc(N5CCOCC5)c4)c3n2)cn1 [Example 51, 2-(4-((1-(3-Fluoro-5-morpholinobenzyl)-1H-pyrazolo[3,4-d]pyrimidin-6-yl)amino)-1H-pyrazol-1-yl)ethanol]
11 | 1 to 10 | < 100 | Cn1cc(Nc2ncc3cnn(Cc4cc(F)cc(N5CCOCC5=O)c4)c3n2)cn1 [Example 52, 4-(3-Fluoro-5-((6-((1-methyl-1H-pyrazol-4-yl)amino)-1H-pyrazolo[3,4-d]pyrimidin-1-yl)methyl)phenyl)morpholin-3-one]
12 | ≥ 10 | < 100 | Cn1cc(Nc2ncc3cnn(Cc4cc(N5CCOCC5=O)cc(F)c4F)c3n2)cn1 [Example 53, 4-(3,4-Difluoro-5-((6-((1-methyl-1H-pyrazol-4-yl)amino)-1H-pyrazolo[3,4-d]pyrimidin-1-yl)methyl)phenyl)morpholin-3-one]
13 | 1 to 10 | < 100 | Cn1cc(Nc2ncc3cnn(Cc4cccc(N5CCNCC5=O)c4F)c3n2)cn1 [Example 54, 1-(2-Fluoro-3-((6-((1-methyl-1H-pyrazol-4-yl)amino)-1H-pyrazolo[3,4-d]pyrimidin-1-yl)methyl)phenyl)piperazin-2-one]
14 | 1 to 10 | < 100 | O=C1CNCCN1c1cccc(Cn2ncc3cnc(Nc4cnn(CCO)c4)nc32)c1F [Example 55, 1-(2-Fluoro-3-((6-((1-(2-hydroxyethyl)-1H-pyrazol-4-yl)amino)-1H-pyrazolo[3,4-d]pyrimidin-1-yl)methyl)phenyl)piperazin-2-one]
15 | ≥ 10 | < 100 | OCCn1cc(Nc2ncc3cnn(Cc4cc(N5CCOCC5)cc(F)c4F)c3n2)cn1 [Example 56, 2-(4-((1-(2,3-Difluoro-5-morpholinobenzyl)-1H-pyrazolo[3,4-d]pyrimidin-6-yl)amino)-1H-pyrazol-1-yl)ethanol]
16 | ≥ 10 | < 100 | O=C1CNCCN1c1cccc(Cn2ncc3cnc(Nc4cnn(CCO)c4)nc32)c1 [Example 57, 1-(3-((6-((1-(2-Hydroxyethyl)-1H-pyrazol-4-yl)amino)-1H-pyrazolo[3,4-d]pyrimidin-1-yl)methyl)phenyl)piperazin-2-one]
17 | 1 to 10 | < 100 | O=C1COCCN1c1cc(F)cc(Cn2ncc3cnc(Nc4cnn(CCO)c4)nc32)c1 [Example 58, 4-(3-Fluoro-5-((6-((1-(2-hydroxyethyl)-1H-pyrazol-4-yl)amino)-1H-pyrazolo[3,4-d]pyrimidin-1-yl)methyl)phenyl)morpholin-3-one]
18 | ≥ 10 | < 100 | O=C1COCCN1c1cc(F)c(F)c(Cn2ncc3cnc(Nc4cnn(CCO)c4)nc32)c1 [Example 59, 4-(3,4-Difluoro-5-((6-((1-(2-hydroxyethyl)-1H-pyrazol-4-yl)amino)-1H-pyrazolo[3,4-d]pyrimidin-1-yl)methyl)phenyl)morpholin-3-one]
19 | 1 to 10 | < 100 | c1cc(Cn2ncc3cnc(Nc4cnn(CC5CCNC5)c4)nc32)cc(N2CCOCC2)c1 (centres unmarked) [Example 60, 1-(3-Morpholinobenzyl)-N-(1-(pyrrolidin-3-ylmethyl)-1H-pyrazol-4-yl)-1H-pyrazolo[3,4-d]pyrimidin-6-amine]
20 | 1 to 10 | < 100 | Cn1cc(Nc2ncc3cnn(Cc4c(F)c(F)cc(N5CCOCC5=O)c4F)c3n2)cn1 [Example 61, 4-(2,4,5-Trifluoro-3-((6-((1-methyl-1H-pyrazol-4-yl)amino)-1H-pyrazolo[3,4-d]pyrimidin-1-yl)methyl)phenyl)morpholin-3-one]
21 | 1 to 10 | < 100 | O=C1COCCN1c1cc(F)c(F)c(Cn2ncc3cnc(Nc4cnn(CCO)c4)nc32)c1F [Example 62, 4-(2,4,5-Trifluoro-3-((6-((1-(2-hydroxyethyl)-1H-pyrazol-4-yl)amino)-1H-pyrazolo[3,4-d]pyrimidin-1-yl)methyl)phenyl)morpholin-3-one]
22 | 1 to 10 | < 100 | O=C1CNCCN1c1cc(F)cc(Cn2ncc3cnc(Nc4cnn(CCO)c4)nc32)c1 [Example 63, 1-(3-Fluoro-5-((6-((1-(2-hydroxyethyl)-1H-pyrazol-4-yl)amino)-1H-pyrazolo[3,4-d]pyrimidin-1-yl)methyl)phenyl)piperazin-2-one]
23 | 1 to 10 | < 100 | Cn1cc(Nc2ncc3cnn(Cc4cc(F)cc(N5CCNCC5=O)c4)c3n2)cn1 [Example 64, 1-(3-Fluoro-5-((6-((1-methyl-1H-pyrazol-4-yl)amino)-1H-pyrazolo[3,4-d]pyrimidin-1-yl)methyl)phenyl)piperazin-2-one]
24 | ≥ 10 | < 100 | COC1CN(c2cccc(Cn3ncc4cnc(Nc5cnn(C)c5)nc43)c2)C1 [Example 65, 1-(3-(3-Methoxyazetidin-1-yl)benzyl)-N-(1-methyl-1H-pyrazol-4-yl)-1H-pyrazolo[3,4-d]pyrimidin-6-amine]
25 | 1 to 10 | < 100 | Cn1cc(Nc2ncc3cnn(Cc4c(F)c(F)cc(N5CCNCC5)c4F)c3n2)cn1 [Example 66, N-(1-Methyl-1H-pyrazol-4-yl)-1-(2,3,6-trifluoro-5-(piperazin-1-yl)benzyl)-1H-pyrazolo[3,4-d]pyrimidin-6-amine]
